Results from ChEMBL document CHEMBL1201862, “PubChem BioAssay data set” (2004).
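Step 1: Grow cells in 96-well plates. Step 2: Expose to compound for 48 hours at 5 concentrations. Step 3: Interpolate endpoints linearly; if unreached, use highest concentration. GI50 marks 50% less growth.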 Active and inactive are the calls of the source. Rule as the data show it: active = GI50 up to about 1.1 µM and inactive = higher.

How the values were obtained:
Test in all cases: growth of human tumour cells (NCI), 48 h
TK-10 = tested on: TK-10
UACC-257 = tested on: UACC-257
RPMI-8226 = tested on: RPMI-8226
OVCAR-3 = tested on: OVCAR-3
SR = tested on: SR
SF-539 = tested on: SF-539
K562 = tested on: K562
PC-3 = tested on: PC-3
HL-60 = tested on: HL-60
SK-OV-3 = tested on: SK-OV-3
M14 = tested on: M14
RXF 393 = tested on: RXF 393
ACHN = tested on: ACHN
SNB-19 = tested on: SNB-19
OVCAR-4 = tested on: OVCAR-4
SK-MEL-28 = tested on: SK-MEL-28
NCI-H226 = tested on: NCI-H226
SNB-75 = tested on: SNB-75
LOX IMVI = tested on: LOX IMVI
CAKI-1 = tested on: CAKI-1

Measured: GI50

COC(=O)c1c(C)c2c(c(C)c1O)OC(=O)c1c(C)cc(O)c(C=O)c1O2
inactive: TK-10 > 100 µM | UACC-257 > 100 µM | RPMI-8226 > 100 µM | OVCAR-3 > 100 µM | SR > 100 µM | SF-539 > 100 µM | K562 > 100 µM | PC-3 > 100 µM | HL-60 > 100 µM | SK-OV-3 20 µM | M14 > 100 µM | RXF 393 > 100 µM | ACHN > 100 µM | SNB-19 > 100 µM | OVCAR-4 > 100 µM | SK-MEL-28 > 100 µM | NCI-H226 > 100 µM

OCC(O)C1OC2CC1Nc1ccccc1N2 (stereo unspecified)
inactive: SNB-75 > 100 µM | TK-10 > 100 µM | UACC-257 > 100 µM | RPMI-8226 > 100 µM | OVCAR-3 > 100 µM | SR > 10 µM | SF-539 > 88.7 µM | K562 > 100 µM | LOX IMVI > 100 µM | CAKI-1 > 100 µM | PC-3 > 100 µM | HL-60 > 100 µM | SK-OV-3 > 100 µM | ACHN > 100 µM | SNB-19 > 100 µM | SK-MEL-28 > 100 µM | NCI-H226 > 100 µM

CN1CCN(C2CC(=O)c3c(Cl)sc(Cl)c32)CC1 (stereo unspecified)
inactive: SNB-75 14.7 µM | TK-10 29 µM | UACC-257 27.1 µM | RPMI-8226 4.36 µM | OVCAR-3 16.3 µM | SR 4 µM | SF-539 17.3 µM | K562 4.06 µM | LOX IMVI 1.8 µM | CAKI-1 21.8 µM | PC-3 29.4 µM | HL-60 19.9 µM | SK-OV-3 > 54.6 µM | M14 6.82 µM | ACHN 18.5 µM | SNB-19 30.7 µM | OVCAR-4 14.6 µM | SK-MEL-28 7.57 µM | NCI-H226 > 42.8 µM

O=C1Nc2cccc(Cl)c2/C1=C\c1c(Cl)nc2sccn12
inactive: SNB-75 11.2 µM | TK-10 11.2 µM | UACC-257 > 100 µM | RPMI-8226 > 100 µM | OVCAR-3 > 100 µM | SR > 100 µM | SF-539 5.2 µM | K562 > 100 µM | LOX IMVI 63.8 µM | CAKI-1 43.2 µM | PC-3 64.4 µM | HL-60 > 100 µM | SK-OV-3 14.9 µM | M14 50.2 µM | RXF 393 13.7 µM | ACHN 12.2 µM | SNB-19 17.6 µM | SK-MEL-28 > 100 µM

CCN(CC)CCn1nc(N)c2nc3cc(Cl)ccc3nc21
inactive: TK-10 > 100 µM | UACC-257 37.5 µM | RPMI-8226 89.9 µM | SR 82.8 µM | K562 40.7 µM | LOX IMVI 51.2 µM | CAKI-1 51.4 µM | PC-3 58.1 µM | HL-60 61.4 µM | SK-OV-3 > 100 µM | M14 37.8 µM | RXF 393 88.9 µM | ACHN 37.5 µM | SNB-19 53.5 µM | OVCAR-4 > 100 µM | SK-MEL-28 76.2 µM | NCI-H226 70.1 µM

O=C1C=CC(=O)c2c1ccc1c3ccccc3n(Cc3ccc([N+](=O)[O-])cc3)c21
inactive: SNB-75 > 100 µM | TK-10 > 100 µM | UACC-257 > 100 µM | RPMI-8226 > 10 µM | OVCAR-3 > 100 µM | SR 13.8 µM | SF-539 > 100 µM | K562 19.7 µM | CAKI-1 > 100 µM | PC-3 > 100 µM | HL-60 14 µM | SK-OV-3 > 100 µM | M14 > 100 µM | RXF 393 > 100 µM | ACHN > 100 µM | SNB-19 > 100 µM | OVCAR-4 > 100 µM | SK-MEL-28 > 100 µM | NCI-H226 > 100 µM

COc1ccc(CC2OC3(CCCCC3)CC3CCCCN32)cc1 (stereo unspecified)
inactive: SNB-75 91.2 µM | TK-10 > 100 µM | UACC-257 > 100 µM | RPMI-8226 23.4 µM | OVCAR-3 46 µM | SR 28.8 µM | K562 27.1 µM | LOX IMVI 48.3 µM | CAKI-1 > 100 µM | PC-3 > 100 µM | HL-60 > 100 µM | SK-OV-3 > 100 µM | M14 76.6 µM | RXF 393 > 100 µM | ACHN > 100 µM | SNB-19 > 100 µM | OVCAR-4 > 100 µM | SK-MEL-28 > 100 µM | NCI-H226 53 µM
